# Residues, ends and D or L forms follow the SMILES beside them. *: point of attachment. Cbz = O=C(OCc1ccccc1)*
# B1: noggin (protein, UniProt Q13253 28-232, looked up)
# Noggin: QHYLHIRPAPSDNLPLVDLIEHPDPIFDPKEKDLNETLLRSLLGGHYDPGFMATSPPEDRPGGGGGAAGGAEDLAELDQLLRQRPSGAMPSEIKGLEFSEGLAQGKKQRLSKKLRRKLQMWLWSQTFCPVLYAWNDLGSRFWPRYVKVGSCFSKRSCSVPEGMVCKPSKSVHLTVLRWRCQRRGGQRCGWIPIQYPIISECKCSC
# notes: natural BMP antagonist
# B2: PEG-catalase: cell-permeable polyethylene glycol-catalase converting H2O2 to H2O, 100 U/ml (protein, UniProt P00432 2-527, looked up)
# Catalase: ADNRDPASDQMKHWKEQRAAQKPDVLTTGGGNPVGDKLNSLTVGPRGPLLVQDVVFTDEMAHFDRERIPERVVHAKGAGAFGYFEVTHDITRYSKAKVFEHIGKRTPIAVRFSTVAGESGSADTVRDPRGFAVKFYTEDGNWDLVGNNTPIFFIRDALLFPSFIHSQKRNPQTHLKDPDMVWDFWSLRPESLHQVSFLFSDRGIPDGHRHMNGYGSHTFKLVNANGEAVYCKFHYKTDQGIKNLSVEDAARLAHEDPDYGLRDLFNAIATGNYPSWTLYIQVMTFSEAEIFPFNPFDLTKVWPHGDYPLIPVGKLVLNRNPVNYFAEVEQLAFDPSNMPPGIEPSPDKMLQGRLFAYPDTHRHRLGPNYLQIPVNCPYRARVANYQRDGPMCMMDNQGGAPNYYPNSFSAPEHQPSALEHRTHFSGDVQRFNSANDDNVTQVRTFYLKVLNEEQRKRLCENIAGHLKDAQLFIQKKAVKNFSDVHPEYGSRIQALLDKYNEEKPKNAVHTYVQHGSHLSAREKANL
# modifications: PEG conjugated
# notes: cell-permeable polyethylene glycol-catalase converting H2O2 to H2O, 100 U/ml
# Assays:
# ICAM-1 = ICAM-1 surface expression by FACS analysis in HAEC; assay type: cell-based, human; conditions: for BMP4-induced ICAM-1 expression in presence of ROS scavenger: HAEC transfected with BMP4; for effect on OS-induced ICAM-1 expression: HAEC exposed to OS 1 day, PEG-catalase or Tiron included during shear
# Description: (§1) Endothelial cells: Mouse aortic endothelial cells (MAEC) were cultured and used at passages 4-8 as described (Cai, H., et al. (2002) J Bio Chem 107, 48311-48317). Human aortic endothelial cells (HAEC) purchased from Clonetics were cultured using EGM-2 bullet kit (Clonetics) and used at passages 4-8. Alternatively, endothelial cells obtained from the thoracic aortas of C57/BL6 control (MAE-wt) and p47^phox-null mice (MAE-p47^−/−) were isolated and cultured as described previously (Hwang, J. et al. (2003) J Biol Chem 278:47291-8), and used between passages 4-10.
# (§2) Shear stress studies: Confluent endothelial monolayers grown in 100 mm tissue culture dishes were exposed to an arterial level of uni-directional LS (15 dyn/cm^2) in the growth medium by rotating a Teflon cone (0.5° cone angle) as described previously. To mimic unstable shear conditions in vivo, endothelial cells were exposed to OS with directional changes of flow at 1 Hz cycle (±5 dyn/cm^2) by rotating the cone back-and-forth using a stepping motor (Servo Motor) and a computer program (DC Motor Company, Atlanta, Ga.). In some studies, 5 dyn/cm^2 unidirectional LS was used for comparison to OS (±5 dyn/cm^2).
# (§3) Fluorescence activated cytometry sorting (FACS) analysis: Treated cells were dissociated into single cell suspensions using 0.25% trypsin-EDTA and resuspended in a FACS buffer (Hank's buffered solution containing 5% FBS). Aliquots of cell suspensions were incubated with ICAM-1 antibody (R&D Systems) for 20 min on ice, washed twice with FACS buffer, and incubated with secondary antibody (fluorescein-5-isothiocyanate- or phycoerytherin-conjugated, Chemicon) for 20 min on ice in the dark. Then samples were washed again, fixed in 1% paraformaldehyde and analyzed by FACS (Calibur, Becton-Dickinson) using CellQuest software. The fluorescence intensity of ICAM-1 and forward cell scattering of 30,000 cells were measured and the geometric means calculated from histograms were shown. In some studies, HAEC were transfected with either BMP4 cloned in a bi-cistronic pAdTrack CMV vector or an empty vector, both expressing green fluorescent protein (GFP), using Lipofectamine 2000. In these experiments, ICAM-1 expression was measured in the red phycoerytherin channel, while the green channel was used to monitor the […] expression-GFP expression was determined by FACS analysis and fluorescence microscopy (20-30% transfection efficiency). Because expression of GFP was similar among different treatment groups within the same experiment, it was unnecessary to normalize ICAM-1 expression data to GFP level. Human recombinant noggin was purchased from R&D Systems and used in all experiments at 50 ng/ml (Dale, L., and Jones, C. M. (1999) Bioessays 21, 751-760; Zimmerman, L. B., et al. (1996) Cell 86, 599-606; Brunei, L. J., et al. (1998) Science 280, 1455-1457).
# MAEC = experiment: Monocyte adhesion: THP-1 monocytes bound to mouse aortic endothelial cells; assay type: cell-based; conditions: for effect on BMP4-induced monocyte adhesion: MAE-wt, BMP4 20 ng/ml 18 hrs, YN1 5 μg/ml last 30 min, PEG-catalase 100 U/ml 18 hrs or Tiron 10 μmol/L 1 hr pre-incubation
# Description: as §1, §2
# (§4) Monocyte Adhesion: Monocyte binding was determined under no-flow conditions using THP-1 monocytes (ATCC) by the method described by Chappel et al (Chappell, D. C., et al. (1998) Circ Res 82, 532-539). Briefly, THP-1 cells (5×10^5 cells/ml) were labeled with a fluorescent dye 2′,7′-bis(carboxyethyl)-5(6)-carboxyfluorescein-AM (BCECF, Molecular Probes) (1 mg/ml) in serum-free RPMI medium for 45 min at 37° C. Following exposure to shear stress or BMP treatments in the presence or absence of noggin or vehicle, the endothelial cells were washed in RPMI medium before adding BCECF-loaded THP-1 cells (1:1 ratio). After a 30 min incubation at 37° C. under no-flow conditions, unbound monocytes were removed by washing the endothelial dishes 5 times with Hank's PBS. Bound monocytes were quantified by either counting the cells under a fluorescent microscope or by measuring the fluorescent intensity of cell lysates by fluorescence spectrophotometry using a plate reader. […] Some studies were performed with MAEC pretreated with 5 μg/ml of mouse-ICAM1 antibody (YN1, Southern Biolechonology) (Kevil, C. G., et al. (2001) Am J Physiol Cell Physiol 281, C1442-1447).
# In FIG. 7B, confluent MAE-wt cells were pre-incubated with cell-permeable PEG-catalase (Catalase, 100 U/ml for 18 hrs) or Tiron (10 μmol/L for 1 hr). Cells were then incubated with 20 ng/ml BMP4 or vehicle for additional 18 hrs. The treated cells in 7A and 7B were washed, and fluorescently-labeled THP-1 monocytes were added. Unbound THP-1 cells were washed after 30 min, and bound monocytes were counted with a fluorescence microscope using a 10× objective (5-10 different fields per dish). […] As a positive control, monocyte binding was determined using MAE-wt treated with TNF-α(100 U/ml for 2hrs).
# VCAM-1 = VCAM-1 expression in endothelial cells; assay type: cell-based, human; conditions: HAEC, FACS; TNF-α 100 U/ml for 2 hr as positive control
# Description: as §3
# (§5) HAEC treated with OS, BMP4 or static condition were analyzed by FACS using antibodies specific to VCAM-1 (C) and E-selectin (D) as described in panel A using TNFa (1OOU/ml, for 2 hr) as a positive control.
# E-selectin = E-selectin surface expression by FACS analysis in HAEC; assay type: cell-based, human; conditions: TNF-α 100 U/ml for 2 hr as positive control
# Description: Fluorescence activated cytometry sorting (FACS) analysis: Treated cells were dissociated into single cell suspensions using 0.25% trypsin-EDTA and resuspended in a FACS buffer (Hank's buffered solution containing 5% FBS). Aliquots of cell suspensions were incubated with ICAM-1 antibody (R&D Systems) for 20 min on ice, washed twice with FACS buffer, and incubated with secondary antibody (fluorescein-5-isothiocyanate- or phycoerytherin-conjugated, Chemicon) for 20 min on ice in the dark. Then samples were washed again, fixed in 1% paraformaldehyde and analyzed by FACS (Calibur, Becton-Dickinson) using CellQuest software. The fluorescence intensity of ICAM-1 and forward cell scattering of 30,000 cells were measured and the geometric means calculated from histograms were shown. […] In these experiments, ICAM-1 expression was measured in the red phycoerytherin channel, while the green channel was used to monitor the […] expression-GFP expression was determined by FACS analysis and fluorescence microscopy (20-30% transfection efficiency). […]
# as §5
# MAE-p47−/− cells = experiment: Monocyte adhesion to p47phox-null endothelial cells, with or without p47phox transfection; assay type: cell-based, mouse; conditions: MAE-p47−/− cells transfected with p47phox (rescued); BMP4 20 ng/ml or TNF-α 100 U/ml, 18 hrs
# Description: as §1, §4
# Transfection of p47phox: In some studies MAE-p47^−/− cells were trasnfected withp47phox expression vector or an empty vector as described (Hwang, J. et al. (2003) J Biol Chem278-47291-8).
# Next, monocyte adhesion was determined in these cells. […] After 18 hrs, cells were washed and monocyte binding was determined as described in FIG. 7. […]
# MAE-wt cells [1] = experiment: O2− assay by electron spin resonance spectroscopy with CMH spin probe; assay type: cell-based, mouse; conditions: MAE-wt exposed to OS for 1 day, noggin during OS exposure
# Description: O2^− Assay: O2^− production was determined by electron spin resonance spectroscopy using methoxycarbonyl-2,2,5,5-tetramethyl-pyrrolidine (CMH) as a spin probe in the presence or absence of PEG-superoxide dismutase (PEG-SOD; 50 U/ml) to quantify the SOD-inhibitable portions of CM.
# In FIG. 10A immediately following treatment of MAE wt cells with BMP4 (200 ng/ml) for 18 hrs, cells were trypsinized and reconstituted in Krebs-Hepes buffer. Equal number of cells was incubated with a spin trap CMH in the presence or absence of PEG-SOD (50 U/mL). The specific O2^− production was calculated by subtracting SOD-inhibitable portions from total O2^− production as determined by following CM production (mean±SEM, n=3, *p<0.05).
# MAE-wt cells [2] = experiment: H2O2 assay by oxidation of DCF-DA; assay type: cell-based, mouse; conditions: PEG-catalase 100 U/ml for 1 day before and during BMP4 treatment
# Description: H2O2 assay: Cells grown in 6-well plates were treated with BMP4 or vehicle control for 18 hrs in the presence or absence of cell-permeable polyethylene glycol (PEG)-catalase (100 U/ml). Cells were then washed once with Hepes buffered saline solution (HBSS) followed by incubation with 7.5 μg/ml 2′, 7′-dichlorofluorescein diacetate (DCF-DA, Molecular Probes) in HBSS for 1 hr at 37 C° in the dark. Cells were washed with HBSS, incubated further for an additional 40 min in HBSS, and the DCF fluorescence intensities were measured in a Cytofluor Multi-Well plate reader (excitation at 475 nm and emission at 525 nm).
# In addition, BMP4 stimulated production of H2O2 by 70% above control as determined by oxidation of DCF-DA (FIG. 10B). […] The cells were washed, incubated with DCF-DA, and the fluorescent intensities determined by fluorometry. Shown is a mean±SEM (n=3, p<0.05). In this assay, a redox cycling menadione (10 μM) was used as positive control (data not shown).
molecule,measurement,setting,value
"CC(C)C[C@@H](C=O)NC(=O)[C@H](CC(C)C)NC(=O)[C@H](CC(C)C)NC(=O)OCc1ccccc1 [MG132, reference compound] (Cbz-Leu-Leu-Leu-aldehyde)",effect on ICAM-1 expression induced by BMP4,"ICAM-1; HAEC, in the presence of NF-κB translocation inhibitor, inactive peptide or proteosome inhibitor",completely prevented
"CC(=O)N[C@@H](CS)C(=O)O [N-Acetyl-cysteine, reference compound]",BMP4-induced ICAM-1 expression in presence of ROS scavenger,ICAM-1,23 % of control
"O=S(=O)(O)c1cc(O)c(O)c(S(=O)(=O)O)c1 [Tiron, reference compound]",effect on OS-induced ICAM-1 expression,ICAM-1; noggin 50 ng/ml,completely prevented
same,effect on BMP4-induced monocyte adhesion,MAEC,completely blocked
TNF-α [reference compound],effect on surface expression of VCAM-1,VCAM-1,strongly increased
same,effect on surface expression of E-selectin,E-selectin,strongly increased
same,ICAM-1 expression above control cells,"ICAM-1; HAEC, TNF-α 100 U/ml for 2 hr",4 to 5 fold
same,increase in monocyte adhesion above the control,MAE-p47−/− cells,approximately 4 fold
B1,effect on OS-induced O2− increase,MAE-wt cells [1],virtually blocked
same,effect on OS-induced ICAM-1 expression,ICAM-1; noggin 50 ng/ml,completely inhibited
same,effect on TNF-α-induced ICAM-1 expression,"ICAM-1; HAEC, TNF-α 100 U/ml for 6 hr, noggin 50 ng/ml",did not affect
same,effect on OS-induced monocyte adhesion,"MAEC; MAEC, OS 24 hr, noggin 50 ng/ml",inhibited OS-induced monocyte adhesion
B2,effect on OS-induced ICAM-1 expression,ICAM-1; noggin 50 ng/ml,completely prevented
same,BMP4-induced ICAM-1 expression in presence of ROS scavenger,ICAM-1,26 % of control
same,effect on BMP4-induced monocyte adhesion,MAEC,completely blocked
same,effect on BMP-dependent H2O2 production,MAE-wt cells [2],completely blocked

# From patent US20060276385A1, “Anti-inflammatory agents and methods of their use” (priority 2003, published 2006)
